From PubChem BioAssay (NCI)
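In this assay, cells in 96-well plates receive the compound at five concentrations for 48 hours. Endpoints are linearly interpolated between the surrounding concentrations. TGI denotes the concentration required for complete inhibition of growth.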

Columns and labels:
Assay in all cases: DTP human tumour cell line panel, 48 h
[1] = test system: SNB-19 CNS
[2] = test system: MOLT-4 leukemia
[3] = test system: NCI-H226 lung
[4] = test system: SNB-75 CNS
[5] = test system: SW-620 colon
[6] = test system: UO-31 renal
[7] = test system: RXF 393 renal
[8] = test system: HCT-116 colon
[9] = test system: HCC-2998 colon
[10] = test system: SF-295 CNS
[11] = test system: MDA-MB-231 breast
[12] = test system: 786-0 renal
[13] = test system: EKVX NSCLC
[14] = test system: U251 CNS
[15] = test system: COLO 205 colon
[16] = test system: DU-145 prostate
[17] = test system: KM12 colon
[18] = test system: UACC-257 melanoma
[19] = test system: HCT-15 colon
[20] = test system: RPMI-8226 leukemia
[21] = test system: K-562 leukemia
[22] = test system: HS 578T breast
[23] = test system: NCI/ADR-RES ovarian
[24] = test system: SK-MEL-28 melanoma
[25] = test system: SF-268 CNS
[26] = test system: MDA-N
[27] = test system: CCRF-CEM leukemia
[28] = test system: MALME-3M melanoma
[29] = test system: A549 NSCLC
[30] = test system: NCI-H23 lung
[31] = test system: OVCAR-8 ovarian
[32] = test system: NCI-H460 lung
[33] = test system: A498 renal
[34] = test system: HOP-62 NSCLC
[35] = test system: OVCAR-3 ovarian
[36] = test system: UACC-62 melanoma
[37] = test system: SF-539 CNS
[38] = test system: MDA-MB-435
[39] = test system: SK-OV-3 ovarian
[40] = test system: SK-MEL-2 melanoma
[41] = test system: PC-3 prostate
[42] = test system: MCF7 breast
[43] = test system: HT29 colon
[44] = test system: CAKI-1 renal
[45] = test system: OVCAR-5 ovarian
[46] = test system: ACHN renal
[47] = test system: SN12C renal
[48] = test system: T-47D breast
[49] = test system: M14 melanoma
[50] = test system: BT-549 breast
[51] = test system: OVCAR-4 ovarian
[52] = test system: IGROV1 ovarian
[53] = test system: NCI-H522 lung
[54] = test system: HL-60(TB) leukemia
[55] = test system: LOX IMVI melanoma
[56] = test system: SK-MEL-5 melanoma
[57] = test system: TK-10 renal

## O=[N+]([O-])/C(C(Cl)=C(Cl)Cl)=C(\Nc1cccc2ccccc12)Sc1ccccc1
[1]
  TGI: 40 µM
[2]
  TGI: > 100 µM
[3]
  TGI: 40.4 µM
[4]
  TGI: 43.4 µM
[5]
  TGI: 24.9 µM
[6]
  TGI: 38.7 µM
[7]
  TGI: 26.9 µM
[8]
  TGI: 56.3 µM
[9]
  TGI: 45.2 µM
[10]
  TGI: 37.1 µM
[11]
  TGI: 23.4 µM
[12]
  TGI: 38 µM
[13]
  TGI: 42.2 µM
[14]
  TGI: 23.4 µM
[15]
  TGI: 28.7 µM
[16]
  TGI: 32 µM
[17]
  TGI: 32 µM
[18]
  TGI: 42.3 µM
[19]
  TGI: 33.1 µM
[20]
  TGI: > 100 µM
[21]
  TGI: > 100 µM
[22]
  TGI: 27.2 µM
[23]
  TGI: 31 µM
[24]
  TGI: 34 µM
[25]
  TGI: 26 µM
[26]
  TGI: 81 µM
[27]
  TGI: > 100 µM
[28]
  TGI: 31.3 µM
[29]
  TGI: 71.6 µM
[30]
  TGI: 31.6 µM
[31]
  TGI: 28.6 µM
[32]
  TGI: > 100 µM
[33]
  TGI: 23.5 µM
[34]
  TGI: 50.5 µM
[35]
  TGI: 21.8 µM
[36]
  TGI: 24.1 µM
[37]
  TGI: 37.4 µM
[38]
  TGI: 33.4 µM
[39]
  TGI: > 100 µM
[40]
  TGI: 30.6 µM
[41]
  TGI: 27.4 µM
[42]
  TGI: 28 µM
[43]
  TGI: > 100 µM
[44]
  TGI: 29.1 µM
[45]
  TGI: 82.1 µM
[46]
  TGI: 28.1 µM
[47]
  TGI: 69.3 µM
[48]
  TGI: 44.8 µM
[49]
  TGI: > 100 µM
[50]
  TGI: 35.4 µM
[51]
  TGI: 35.7 µM

## CC(=O)OC/C=C(\C)CCC(Br)C(C)(C)Br (configuration not stated)
[1]
  TGI: > 10 µM
[2]
  TGI: > 10 µM
[52]
  TGI: > 10 µM
[3]
  TGI: > 10 µM
[4]
  TGI: > 10 µM
[5]
  TGI: > 10 µM
[7]
  TGI: > 10 µM
[8]
  TGI: > 10 µM
[9]
  TGI: > 10 µM
[53]
  TGI: > 10 µM
[10]
  TGI: > 10 µM
[11]
  TGI: > 10 µM
[12]
  TGI: > 10 µM
[13]
  TGI: > 10 µM
[54]
  TGI: > 10 µM
[14]
  TGI: > 10 µM
[55]
  TGI: > 10 µM
[15]
  TGI: > 10 µM
[16]
  TGI: > 10 µM
[17]
  TGI: > 10 µM
[18]
  TGI: > 10 µM
[19]
  TGI: > 10 µM
[20]
  TGI: > 10 µM
[56]
  TGI: > 10 µM
[21]
  TGI: > 10 µM
[22]
  TGI: > 10 µM
[23]
  TGI: > 10 µM
[24]
  TGI: > 10 µM
[25]
  TGI: > 10 µM
[26]
  TGI: > 10 µM
[27]
  TGI: > 10 µM
[28]
  TGI: > 10 µM
[29]
  TGI: > 10 µM
[30]
  TGI: > 10 µM
[31]
  TGI: > 10 µM
[32]
  TGI: > 10 µM
[33]
  TGI: > 10 µM
[34]
  TGI: > 10 µM
[35]
  TGI: > 10 µM
[36]
  TGI: > 10 µM
[37]
  TGI: > 10 µM
[38]
  TGI: > 10 µM
[39]
  TGI: > 10 µM
[40]
  TGI: > 10 µM
[41]
  TGI: > 10 µM
[42]
  TGI: > 10 µM
[43]
  TGI: > 10 µM
[44]
  TGI: > 10 µM
[45]
  TGI: > 10 µM
[46]
  TGI: > 10 µM
[47]
  TGI: > 10 µM
[57]
  TGI: > 10 µM
[48]
  TGI: > 10 µM
[49]
  TGI: > 10 µM
[50]
  TGI: > 10 µM
[51]
  TGI: > 10 µM
